Measured values as given in ChEMBL document CHEMBL1138908, “Design and structure-activity relationship of 3-benzimidazol-2-yl-1H-indazoles as inhibitors of receptor tyrosine kinases” (Bioorg Med Chem Lett, 2006).

Experiments:
[1] = target: Platelet-derived growth factor receptor beta (Mus musculus, UniProt P05622); experiment: Inhibition of PDGFRbeta
[2] = Oral bioavailability in mouse; type: ADME, organism-based; settings: in vivo
[3] = Half life in mouse; type: ADME, organism-based; settings: in vivo
[4] = system: KM12; experiment: Antitumor activity against human KM12L4a cell line xenografted in nude mice at 30 mg/kg, after 14 days; type: functional; settings: Mus musculus, KM12, 336 h, read-out: TGI
[5] = target: Vascular endothelial growth factor receptor 1 (Homo sapiens, UniProt P17948); experiment: Inhibition of VEGFR1
[6] = target: Fibroblast growth factor receptor 1 (Homo sapiens, UniProt P11362); experiment: Inhibition of FGFR1
[7] = target: Vascular endothelial growth factor receptor 2 (Mus musculus, UniProt P35918); experiment: Inhibition of VEGFR2
[8] = species: Mus musculus; experiment: Area under curve in mouse; type: ADME, organism-based; settings: in vivo
[9] = Volume of distribution in mouse; type: ADME, organism-based; settings: in vivo, read-out: Vdss
[10] = Clearance in mouse; type: ADME, organism-based; settings: in vivo
[11] = system: KM12; experiment: Antitumor activity against human KM12L4a cell line xenografted in nude mice at 100 mg/kg, after 14 days; type: functional; settings: Mus musculus, KM12, 336 h, read-out: TGI
[12] = system: HMEC; experiment: Inhibition of VEGF-mediated proliferation of HMVEC; type: functional, cell-based; settings: Homo sapiens

Platelet-derived growth factor receptor beta, sequence (P05622 whole entry): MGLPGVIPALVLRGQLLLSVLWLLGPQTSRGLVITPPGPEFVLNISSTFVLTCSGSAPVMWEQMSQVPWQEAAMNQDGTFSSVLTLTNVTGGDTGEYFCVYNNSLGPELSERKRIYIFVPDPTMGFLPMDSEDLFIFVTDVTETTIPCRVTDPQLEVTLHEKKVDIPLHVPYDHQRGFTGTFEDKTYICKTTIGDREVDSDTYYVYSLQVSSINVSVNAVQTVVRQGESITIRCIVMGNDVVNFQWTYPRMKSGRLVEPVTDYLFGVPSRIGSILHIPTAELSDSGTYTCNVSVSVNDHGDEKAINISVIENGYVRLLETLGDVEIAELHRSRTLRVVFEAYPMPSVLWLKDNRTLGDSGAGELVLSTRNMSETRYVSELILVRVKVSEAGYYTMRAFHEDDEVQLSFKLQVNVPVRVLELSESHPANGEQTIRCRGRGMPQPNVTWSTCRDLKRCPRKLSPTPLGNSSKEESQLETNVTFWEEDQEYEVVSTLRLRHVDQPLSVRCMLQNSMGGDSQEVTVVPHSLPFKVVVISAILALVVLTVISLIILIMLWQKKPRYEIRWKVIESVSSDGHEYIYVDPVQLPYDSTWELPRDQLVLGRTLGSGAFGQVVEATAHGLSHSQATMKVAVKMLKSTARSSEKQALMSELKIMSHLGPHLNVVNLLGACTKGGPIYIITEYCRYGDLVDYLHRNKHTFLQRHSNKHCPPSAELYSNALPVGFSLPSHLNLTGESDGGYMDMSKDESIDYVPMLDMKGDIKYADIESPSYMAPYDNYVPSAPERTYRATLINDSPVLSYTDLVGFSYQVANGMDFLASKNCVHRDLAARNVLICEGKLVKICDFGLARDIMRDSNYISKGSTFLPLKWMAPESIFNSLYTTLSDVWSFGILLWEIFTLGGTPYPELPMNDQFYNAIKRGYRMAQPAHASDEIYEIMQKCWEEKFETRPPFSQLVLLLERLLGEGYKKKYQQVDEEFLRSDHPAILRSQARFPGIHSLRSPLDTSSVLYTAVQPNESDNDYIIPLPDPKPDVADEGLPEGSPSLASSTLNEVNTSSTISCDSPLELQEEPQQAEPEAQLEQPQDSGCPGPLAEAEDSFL
Vascular endothelial growth factor receptor 2, sequence (P35918 whole entry): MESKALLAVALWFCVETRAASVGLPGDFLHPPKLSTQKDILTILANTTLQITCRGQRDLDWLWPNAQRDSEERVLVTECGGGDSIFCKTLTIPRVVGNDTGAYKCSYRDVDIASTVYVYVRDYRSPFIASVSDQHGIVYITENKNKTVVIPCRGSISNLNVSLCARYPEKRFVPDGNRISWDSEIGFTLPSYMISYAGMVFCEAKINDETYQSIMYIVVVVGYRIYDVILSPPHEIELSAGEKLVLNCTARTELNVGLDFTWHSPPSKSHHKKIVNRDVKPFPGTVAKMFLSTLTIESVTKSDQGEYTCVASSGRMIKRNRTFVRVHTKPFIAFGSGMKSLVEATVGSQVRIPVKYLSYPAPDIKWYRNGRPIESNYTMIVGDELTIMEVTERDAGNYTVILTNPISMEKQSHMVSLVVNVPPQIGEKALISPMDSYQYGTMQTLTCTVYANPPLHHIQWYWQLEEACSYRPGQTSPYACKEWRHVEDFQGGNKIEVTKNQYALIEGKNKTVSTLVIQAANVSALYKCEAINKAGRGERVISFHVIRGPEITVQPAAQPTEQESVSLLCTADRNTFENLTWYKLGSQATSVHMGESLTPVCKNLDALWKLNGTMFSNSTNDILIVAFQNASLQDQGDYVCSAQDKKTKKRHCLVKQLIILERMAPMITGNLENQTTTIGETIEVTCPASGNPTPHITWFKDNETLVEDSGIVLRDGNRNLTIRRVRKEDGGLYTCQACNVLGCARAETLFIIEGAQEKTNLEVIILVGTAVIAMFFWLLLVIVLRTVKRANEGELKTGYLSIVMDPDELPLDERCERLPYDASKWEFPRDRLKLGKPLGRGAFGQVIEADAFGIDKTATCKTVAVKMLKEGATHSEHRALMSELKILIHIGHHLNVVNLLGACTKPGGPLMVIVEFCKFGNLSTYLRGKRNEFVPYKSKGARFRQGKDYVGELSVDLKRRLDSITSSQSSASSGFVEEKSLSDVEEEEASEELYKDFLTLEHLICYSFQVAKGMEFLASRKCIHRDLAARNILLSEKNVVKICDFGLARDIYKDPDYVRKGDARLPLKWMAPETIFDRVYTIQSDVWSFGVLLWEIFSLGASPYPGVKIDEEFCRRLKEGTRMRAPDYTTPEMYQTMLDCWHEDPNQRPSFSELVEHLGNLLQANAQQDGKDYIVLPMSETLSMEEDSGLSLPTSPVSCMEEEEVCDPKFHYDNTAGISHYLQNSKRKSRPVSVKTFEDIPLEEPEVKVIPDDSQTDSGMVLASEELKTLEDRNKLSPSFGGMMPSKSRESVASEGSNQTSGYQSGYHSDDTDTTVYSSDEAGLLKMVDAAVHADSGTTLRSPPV
Vascular endothelial growth factor receptor 1, sequence (P17948 whole entry): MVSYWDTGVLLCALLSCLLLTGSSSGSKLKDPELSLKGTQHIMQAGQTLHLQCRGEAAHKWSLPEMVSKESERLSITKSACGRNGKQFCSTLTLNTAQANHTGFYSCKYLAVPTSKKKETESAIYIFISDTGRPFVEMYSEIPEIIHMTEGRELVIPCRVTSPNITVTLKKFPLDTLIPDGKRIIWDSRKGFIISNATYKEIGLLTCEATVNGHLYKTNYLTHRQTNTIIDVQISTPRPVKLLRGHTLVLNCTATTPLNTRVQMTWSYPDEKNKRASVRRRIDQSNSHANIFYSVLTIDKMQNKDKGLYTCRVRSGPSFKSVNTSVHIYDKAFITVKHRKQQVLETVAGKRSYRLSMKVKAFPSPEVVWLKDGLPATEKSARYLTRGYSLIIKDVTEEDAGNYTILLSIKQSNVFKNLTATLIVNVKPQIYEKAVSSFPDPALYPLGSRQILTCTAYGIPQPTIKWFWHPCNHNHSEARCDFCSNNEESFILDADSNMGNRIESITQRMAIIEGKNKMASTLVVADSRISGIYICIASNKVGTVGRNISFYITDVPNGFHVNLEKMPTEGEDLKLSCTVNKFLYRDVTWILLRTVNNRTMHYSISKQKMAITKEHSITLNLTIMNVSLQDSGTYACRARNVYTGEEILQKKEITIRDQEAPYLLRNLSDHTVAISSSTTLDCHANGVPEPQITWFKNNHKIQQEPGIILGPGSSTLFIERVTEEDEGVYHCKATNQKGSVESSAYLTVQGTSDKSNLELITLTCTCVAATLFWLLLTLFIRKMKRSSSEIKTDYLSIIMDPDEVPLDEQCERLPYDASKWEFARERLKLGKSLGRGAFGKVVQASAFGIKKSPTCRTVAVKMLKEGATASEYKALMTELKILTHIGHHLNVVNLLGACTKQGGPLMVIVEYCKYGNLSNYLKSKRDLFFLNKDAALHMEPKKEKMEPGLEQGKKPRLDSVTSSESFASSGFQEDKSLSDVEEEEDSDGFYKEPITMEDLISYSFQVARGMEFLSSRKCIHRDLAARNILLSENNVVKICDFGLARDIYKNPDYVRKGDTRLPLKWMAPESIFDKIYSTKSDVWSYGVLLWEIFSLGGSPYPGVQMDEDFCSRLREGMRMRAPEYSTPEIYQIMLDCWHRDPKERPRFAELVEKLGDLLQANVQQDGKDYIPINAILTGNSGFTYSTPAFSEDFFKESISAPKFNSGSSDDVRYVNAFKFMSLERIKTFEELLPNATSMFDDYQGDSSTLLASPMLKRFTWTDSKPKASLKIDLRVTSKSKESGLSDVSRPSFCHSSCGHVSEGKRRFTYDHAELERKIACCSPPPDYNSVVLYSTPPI
Fibroblast growth factor receptor 1, sequence (P11362 whole entry): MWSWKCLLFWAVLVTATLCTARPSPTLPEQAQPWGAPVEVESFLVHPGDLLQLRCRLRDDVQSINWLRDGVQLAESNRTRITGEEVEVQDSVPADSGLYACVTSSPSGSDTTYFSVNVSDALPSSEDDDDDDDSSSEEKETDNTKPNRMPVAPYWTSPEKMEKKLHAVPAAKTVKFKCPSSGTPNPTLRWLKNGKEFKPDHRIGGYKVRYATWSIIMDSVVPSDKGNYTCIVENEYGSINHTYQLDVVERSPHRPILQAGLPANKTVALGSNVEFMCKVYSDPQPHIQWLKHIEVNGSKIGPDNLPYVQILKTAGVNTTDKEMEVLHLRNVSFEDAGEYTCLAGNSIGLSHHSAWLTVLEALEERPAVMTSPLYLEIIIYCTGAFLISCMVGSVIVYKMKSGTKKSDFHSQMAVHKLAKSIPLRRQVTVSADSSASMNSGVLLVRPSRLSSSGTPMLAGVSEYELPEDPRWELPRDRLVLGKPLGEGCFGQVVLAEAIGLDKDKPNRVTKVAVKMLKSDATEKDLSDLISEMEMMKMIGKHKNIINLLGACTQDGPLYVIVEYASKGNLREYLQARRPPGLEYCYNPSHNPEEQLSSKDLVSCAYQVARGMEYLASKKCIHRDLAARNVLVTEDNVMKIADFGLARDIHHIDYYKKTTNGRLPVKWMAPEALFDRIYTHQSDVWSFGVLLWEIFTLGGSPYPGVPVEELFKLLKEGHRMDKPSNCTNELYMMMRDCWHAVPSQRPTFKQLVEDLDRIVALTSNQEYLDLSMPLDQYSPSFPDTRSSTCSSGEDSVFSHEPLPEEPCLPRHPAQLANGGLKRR

bioavailability [2]	half-life [3]	AUC [8]	Vd [9]	clearance [10]	Compound	IC50 [1]	inhibition in vivo at 30 mg/kg [4]	IC50 [5]	IC50 [6]	IC50 [7]	inhibition in vivo at 100 mg/kg [11]	EC50 [12]
62%	4.22 h	2.83 µg·h/mL	24.8 L/kg	4.26 L/h/kg	Fc1ccc2c(-c3nc4cc(N5CCC(N6CCCCC6)CC5)ccc4[nH]3)[nH]nc2c1	0.31 µM	50%	0.01 µM	0.028 µM	0.028 µM	88%	0.033 µM
–	–	–	–	–	COC(=O)c1ccc2[nH]nc(-c3nc4ccc(N5CCC(N6CCCCC6)CC5)cc4[nH]3)c2c1	0.063 µM	–	0.015 µM	0.073 µM	0.031 µM	–	0.13 µM
–	–	–	–	–	CN1CCN(Cc2ccc3[nH]c(-c4[nH]nc5ccccc45)nc3c2)CC1	1.9 µM	–	0.17 µM	0.27 µM	0.26 µM	–	0.3 µM
–	–	–	–	–	c1ccc2c(-c3nc4cc(OCCCN5CCCC5)ccc4[nH]3)[nH]nc2c1	0.44 µM	–	0.048 µM	0.098 µM	0.17 µM	–	0.27 µM
–	–	–	–	–	CN1CCN(c2ccc3[nH]c(-c4[nH]nc5ccccc45)nc3c2)CC1	0.17 µM	–	0.044 µM	0.082 µM	0.13 µM	–	0.097 µM
–	–	–	–	–	CC(C)(C)NC(=O)Nc1cccc2c(-c3nc4cc(N5CCC(N6CCCCC6)CC5)ccc4[nH]3)[nH]nc12	> 3 µM	–	> 3 µM	> 3 µM	> 3 µM	–	–
–	–	–	–	–	c1ccc(COc2cccc3[nH]nc(-c4nc5cc(N6CCC(N7CCCCC7)CC6)ccc5[nH]4)c23)cc1	1.8 µM	–	0.063 µM	0.094 µM	0.66 µM	–	0.46 µM
–	–	–	–	–	c1ccc2c(-c3nc4cc(-n5ccnc5)ccc4[nH]3)n[nH]c2c1	1.4 µM	–	0.096 µM	0.21 µM	0.083 µM	–	7 µM
–	–	–	–	–	CN1CCC(N(C)c2ccc3nc(-c4n[nH]c5ccccc45)[nH]c3c2)CC1	0.5 µM	–	0.008 µM	0.018 µM	0.15 µM	–	0.22 µM
–	–	–	–	–	Nc1c(-c2nc3ccccc3[nH]2)c(=O)[nH]c2ccccc12	–	–	–	–	–	–	0.078 µM
–	–	–	–	–	c1ccc2c(-c3nc4c(N5CCOCC5)cccc4[nH]3)n[nH]c2c1	> 3 µM	–	> 3 µM	0.83 µM	> 3 µM	–	> 10 µM
–	–	–	–	–	FC(F)(F)c1ccc2c(-c3nc4ccc(N5CCC(N6CCCCC6)CC5)cc4[nH]3)n[nH]c2c1	0.062 µM	–	–	–	0.052 µM	–	0.004 µM
–	–	–	–	–	c1cc2[nH]nc(-c3nc4ccc(N5CCC(N6CCCCC6)CC5)cc4[nH]3)c2cc1NCC1CCCCC1	1.7 µM	–	0.021 µM	0.016 µM	0.044 µM	–	0.22 µM
–	–	–	–	–	c1ccc(COc2ccc3c(-c4nc5ccc(N6CCC(N7CCCCC7)CC6)cc5[nH]4)n[nH]c3c2)cc1	0.18 µM	–	0.011 µM	0.023 µM	0.021 µM	–	0.22 µM
–	–	–	–	–	c1ccc2c(-c3nc4ccc(N5CCC(N6CCCCC6)CC5)cc4[nH]3)n[nH]c2c1	0.69 µM	–	0.028 µM	0.048 µM	0.078 µM	–	0.097 µM
–	–	–	–	–	Fc1cccc2c(-c3nc4ccc(N5CCC(N6CCCCC6)CC5)cc4[nH]3)n[nH]c12	2.3 µM	–	0.15 µM	0.2 µM	0.33 µM	–	1.4 µM
–	–	–	–	–	c1ccc2[nH]c(-c3n[nH]c4ccccc34)nc2c1	3.4 µM	–	0.72 µM	1.4 µM	3.3 µM	–	5.9 µM
–	–	–	–	–	CC(C)(C)NC(=O)Nc1cccc2[nH]nc(-c3nc4cc(N5CCC(N6CCCCC6)CC5)ccc4[nH]3)c12	0.44 µM	–	0.004 µM	0.003 µM	0.07 µM	–	0.24 µM
–	–	–	–	–	c1ccc(COc2ccc3[nH]nc(-c4nc5ccc(N6CCC(N7CCCCC7)CC6)cc5[nH]4)c3c2)cc1	0.083 µM	–	0.003 µM	0.008 µM	0.03 µM	–	0.19 µM
–	–	–	–	–	c1ccc(COc2cccc3c(-c4nc5cc(N6CCC(N7CCCCC7)CC6)ccc5[nH]4)[nH]nc23)cc1	> 3 µM	–	> 3 µM	> 3 µM	> 3 µM	–	1.8 µM
–	–	–	–	–	CC(C)(C)NC(=O)Nc1ccc2[nH]nc(-c3nc4ccc(N5CCC(N6CCCCC6)CC5)cc4[nH]3)c2c1	0.081 µM	–	–	–	0.005 µM	–	0.35 µM
–	–	–	–	–	c1ccc2c(-c3nc4ccc(N5CCOCC5)cc4[nH]3)n[nH]c2c1	0.26 µM	–	0.05 µM	0.1 µM	0.16 µM	–	0.16 µM
–	–	–	–	–	c1ccc(Oc2ccc3n[nH]c(-c4nc5cc(N6CCC(N7CCCCC7)CC6)ccc5[nH]4)c3c2)cc1	0.008 µM	–	0.028 µM	0.015 µM	0.044 µM	–	0.08 µM
